The numbers were not newly measured in patent US20220323396A1, “COMPOSITIONS AND METHODS FOR TREATING VIRAL INFECTION USING ANTIVIRAL COCKTAILS” (priority 2020, published 2022), which cites them from elsewhere.

For one series, the target named is thrombin (Homo sapiens, UniProt P00734). As to conditions: values ranging; potent, specific and reversible inhibition.
In another series the target is human tryptase (Homo sapiens, UniProt Q15661).
human tryptase, sequence (Q15661 31-275): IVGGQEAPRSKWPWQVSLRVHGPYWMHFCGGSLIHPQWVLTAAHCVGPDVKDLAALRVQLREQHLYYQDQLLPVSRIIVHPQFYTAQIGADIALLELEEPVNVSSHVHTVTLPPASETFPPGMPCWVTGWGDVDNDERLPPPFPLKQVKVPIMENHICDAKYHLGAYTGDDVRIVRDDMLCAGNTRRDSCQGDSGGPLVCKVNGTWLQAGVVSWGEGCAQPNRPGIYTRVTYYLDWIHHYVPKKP

As for `N=C(N)c1ccc2cc(OC(=O)c3ccc(N=C(N)N)cc3)ccc2c1` [Nafamostat], the IC50 on thrombin is 330 to 1900 nM; at human tryptase, 0.016 nM.
